Experiments:
panel of 442 kinases [1] = biological target: T1, panel of 442 kinases (Homo sapiens, UniProt Q7L7X3); format: binding; settings: kinase TAOK1; compound concentration 10 µM
T1 construct: purchased KINOMEscan
T1 sequence (Q7L7X3 1-1001): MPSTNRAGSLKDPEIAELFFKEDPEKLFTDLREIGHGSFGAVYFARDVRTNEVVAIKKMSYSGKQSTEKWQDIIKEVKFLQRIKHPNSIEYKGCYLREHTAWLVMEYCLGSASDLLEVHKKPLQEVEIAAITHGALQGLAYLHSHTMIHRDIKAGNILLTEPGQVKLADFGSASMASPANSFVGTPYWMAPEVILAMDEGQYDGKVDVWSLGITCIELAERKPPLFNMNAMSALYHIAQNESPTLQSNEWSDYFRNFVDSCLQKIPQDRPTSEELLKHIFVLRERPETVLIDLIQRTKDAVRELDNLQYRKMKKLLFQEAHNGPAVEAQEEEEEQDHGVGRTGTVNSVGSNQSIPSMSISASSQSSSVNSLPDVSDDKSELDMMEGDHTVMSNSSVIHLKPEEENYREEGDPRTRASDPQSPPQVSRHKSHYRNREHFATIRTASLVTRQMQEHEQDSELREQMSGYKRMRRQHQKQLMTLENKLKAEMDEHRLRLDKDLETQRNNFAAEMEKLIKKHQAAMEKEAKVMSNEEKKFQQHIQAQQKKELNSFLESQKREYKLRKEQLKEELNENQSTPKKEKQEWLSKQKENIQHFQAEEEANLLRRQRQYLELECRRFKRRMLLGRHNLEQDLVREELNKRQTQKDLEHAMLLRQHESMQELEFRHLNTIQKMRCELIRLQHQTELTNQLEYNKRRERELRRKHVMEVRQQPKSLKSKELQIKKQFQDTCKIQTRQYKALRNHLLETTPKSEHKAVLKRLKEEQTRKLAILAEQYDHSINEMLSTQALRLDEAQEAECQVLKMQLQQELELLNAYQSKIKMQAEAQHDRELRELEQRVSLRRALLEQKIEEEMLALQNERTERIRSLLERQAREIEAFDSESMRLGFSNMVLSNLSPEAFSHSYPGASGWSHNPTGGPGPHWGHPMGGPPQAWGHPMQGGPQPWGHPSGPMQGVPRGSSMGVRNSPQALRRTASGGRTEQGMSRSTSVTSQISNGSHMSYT
From the text: (§1) We assessed the selectivity of members of this scaffold using the KINOMEscan methodology across a near comprehensive panel of 442 kinases [[18,27]].

panel of 442 kinases [2] = biological target: T2, panel of 442 kinases (Homo sapiens, UniProt Q9H093); format: binding; settings: kinase SNARK; compound concentration 10 µM
T2 construct: purchased KINOMEscan
T2 sequence (Q9H093 1-628): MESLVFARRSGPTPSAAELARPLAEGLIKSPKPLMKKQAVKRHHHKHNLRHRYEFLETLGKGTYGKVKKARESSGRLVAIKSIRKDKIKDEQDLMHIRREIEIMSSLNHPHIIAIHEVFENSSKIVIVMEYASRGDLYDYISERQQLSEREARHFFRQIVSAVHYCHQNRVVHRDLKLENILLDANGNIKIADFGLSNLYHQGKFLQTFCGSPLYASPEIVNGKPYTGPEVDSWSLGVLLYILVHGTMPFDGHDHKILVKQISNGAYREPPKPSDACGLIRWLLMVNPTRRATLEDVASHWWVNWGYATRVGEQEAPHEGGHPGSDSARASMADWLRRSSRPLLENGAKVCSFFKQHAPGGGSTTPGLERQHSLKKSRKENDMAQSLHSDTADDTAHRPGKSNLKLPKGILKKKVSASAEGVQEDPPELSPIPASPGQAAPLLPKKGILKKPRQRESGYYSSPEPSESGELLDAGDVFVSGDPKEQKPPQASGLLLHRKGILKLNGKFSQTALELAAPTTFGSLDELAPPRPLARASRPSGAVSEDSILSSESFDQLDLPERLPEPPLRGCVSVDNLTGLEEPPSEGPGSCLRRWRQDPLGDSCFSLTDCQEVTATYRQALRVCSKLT
From the text: as §1

| Structure (SMILES) | % Ctrl, TAOK1 (panel of 442 kinases [1]) | % Ctrl, SNARK (panel of 442 kinases [2]) |
| --- | --- | --- |
| COc1cc(C(=O)N2CCC(N3CCN(C)CC3)CC2)ccc1Nc1ncc2c(n1)N(C)c1ccccc1C(=O)N2C [15 (LRRK2-IN-1)] | 28 % Ctrl | 47 % Ctrl |
| CCOc1cc(C(=O)N2CCC(N3CCN(C)CC3)CC2)ccc1Nc1ncc2c(n1)N(C1CCCC1)c1ccccc1C(=O)N2C [Compound 26] | 79 % Ctrl | 96 % Ctrl |
| COc1cc(C(=O)N2CCC(N3CCN(C)CC3)CC2)ccc1Nc1ncc2c(n1)N1CCc3cccc(c31)C(=O)N2C [Compound 24] |  | 74 % Ctrl |
| COc1cc(C(=O)N2CCC(N3CCN(C)CC3)CC2)ccc1Nc1ncc2c(n1)N(C1CCCC1)c1ccccc1C(=O)N2C [Compound 25, 11-cyclopentyl-2-((2-methoxy-4-(4-(4-methylpiperazin-1-yl)piperidine-1-carbonyl)phenyl)amino)-5-methyl-5H-benzo[e]pyrimido[5,4-b][1,4]diazepin-6(11H)-one] | 51 % Ctrl | 100 % Ctrl |
